Assay results published in patent publication US7186831B2, “5-halo-2-alkyl[1,2,4]triazolo[1,5-a]pyrimidin-7-amines” (priority 2001, dated 2007).
Each block holds one molecule with its values, some of them ahead of it.

Columns and labels:
[1] = test system: Podosphaera leucotricha; test: Podosphaera test (apple)/protective; type: in vivo; details: protective, application rate 100 g/ha, evaluation 10 days after inoculation
Protocol: Podosphaera Test (Apple)/Protective • Solvent: 24.5 parts by weight of acetone • 24.5 parts by weight of dimethylacetamide • Emulsifier: 1 part by weight of alkylaryl polyglycol ether
To produce a suitable preparation of active compound, 1 part by weight of active compound is mixed with the stated amounts of solvent and emulsifier and the concentrate is diluted with water to the desired concentration.
To test for protective activity, the young plants are sprayed with the active compound preparation at the application rate indicated. After the spray coating has dried on, the plants are inoculated with an aqueous spore suspension of the apple mildew causative organism Podosphaera leucotricha. The plants are then placed in a greenhouse at about 23° C. and at a relative humidity of about 70%.
Evaluation is made 10 days after inoculation. 0% denotes an efficacy corresponding to that of the control, while an efficacy of 100% denotes that no infestation is observed.

[2] = test system: Sphaerotheca fuliginea; test: Spaerotheca test (cucumber)/protective; type: in vivo; details: protective, application rate 750 g/ha, evaluation 7 days after inoculation
Protocol: Spaerotheca Test (Cucumber)/Protective • Solvent: 49 parts by weight of N,N-dimethylformamide • Emulsifier: 1 part by weight of alkylaryl polyglycol ether To produce a suitable preparation of active compound, 1 part by weight of active compound is mixed with the stated amounts of solvent and emulsifier and the concentrate is diluted with water to the desired concentration. To test for protective activity, the young cucumber plants are sprayed with the active compound preparation at the application rate indicated. 1 day after treatment, the plants are inoculated with a spore suspension of Sphaerotheca fuliginea. The plants are then placed in a greenhouse at a temperature of 23° C. and at a relative humidity of 70%. Evaluation is made 7 days after inoculation. 0% denotes an efficacy corresponding to that of the control, while an efficacy of 100% denotes that no infestation is observed.

[3] = log P by HPLC; type: physicochemical
[4] = test system: Puccinia recondita; test: Puccinia test (wheat)/protective; type: in vivo; details: protective, application rate 500 g/ha, evaluation 10 days after inoculation
Protocol: Puccinia Test (Wheat)/Protective • Solvent: 25 parts by weight of N,N-dimethylacetamide • Emulsifier: 0.6 part by weight of alkylaryl polyglycol ether To produce a suitable preparation of active compound, 1 part by weight of active compound is mixed with the stated amounts of solvent and emulsifier and the concentrate is diluted with water to the desired concentration. To test for protective activity, the young plants are sprayed with the active compound preparation at the application rate indicated. After the spray coating has dried on, the plants are sprayed with a conidia suspension of Puccinia recondita. The plants spend 48 hours at 20° C. and 100% relative humidity in an incubation cabin. The plants are then placed in a greenhouse at a temperature of about 20° C. and a relative humidity of 80% in order to promote the development of rust pustules. Evaluation is made 10 days after inoculation. 0% denotes an efficacy corresponding to that of the control, while an efficacy of 100% denotes that no infestation is observed.

[5] = HPLC, gradient method, acetonitrile/0.1% aqueous phosphoric acid, EEC directive 79/831 Annex V. A8
[6] = EEC directive 79/831 Annex V. A8 by HPLC (gradient method, acetonitrile/0.1% aqueous phosphoric acid)

- chromatographic logP [3, 5]: 3.64
SMILES: Fc1cc(F)c(-c2c(Cl)nc3nc(C(F)(F)F)nn3c2NCC(F)(F)F)c(F)c1 [Example 8]
- Efficacy in % [1]: 100%
- Efficacy in % [2]: 100%

- chromatographic logP [3, 5]: 3.39
SMILES: CCc1nc2nc(Cl)c(-c3c(F)cc(F)cc3F)c(N[C@@H](C)C(F)(F)F)n2n1 [Example 4]
- Efficacy in % [2]: 93%

- chromatographic logP [3, 5]: 3.94
SMILES: C[C@H](Nc1c(-c2c(F)cc(F)cc2F)c(Cl)nc2nc(C(F)(F)F)nn12)C(F)(F)F [Example 3]
- Efficacy in % [4]: 100%
- Efficacy in % [2]: 93%

- chromatographic logP [3, 5]: 3.76
SMILES: Fc1cc(F)c(-c2c(Cl)nc3nc(C(F)(F)F)nn3c2NCCC(F)(F)F)c(F)c1 [Example 7]
- Efficacy in % [1]: 100%
- Efficacy in % [2]: 100%

- logP [3, 6]: 2.9
SMILES: Cc1nc2nc(Cl)c(-c3c(F)cccc3F)c(NOCc3ccc(F)cc3)n2n1 [compound 432]

- logP [3, 5]: 4.54
SMILES: CC(C)CN(C)c1c(-c2ccc(F)cc2F)c(Cl)nc2nc(C(F)(F)F)nn12 [compound 544]

- logP [3, 5]: 3.33
SMILES: CCN(CC)c1c(-c2c(F)cccc2Cl)c(Cl)nc2nc(C)nn12 [compound 252]

- logP [3, 5]: 3.97
SMILES: CCN(Cc1ccco1)c1c(-c2ccc(F)cc2F)c(Cl)nc2nc(C3CC3)nn12 [compound 592]

- logP [3, 5]: 3.17
SMILES: Fc1ccc(-c2c(Cl)nc3nc(C4CC4)nn3c2NCC(F)(F)F)c(F)c1 [compound 714]

- logP [3, 5]: 3.8
SMILES: Fc1ccc(-c2c(Cl)nc3nc(C(F)(F)F)nn3c2N2CCC3(CC2)OCCO3)c(F)c1 [compound 796]

- logP [3, 5]: 4.12
SMILES: CC(Nc1c(-c2ccc(Cl)cc2Cl)c(Cl)nc2nc(C3CC3)nn12)C(F)(F)F (single isomer, unassigned) [compound 710]

- logP [3, 5]: 1.59
SMILES: CCN(CCN(C)C)c1c(-c2c(F)cc(F)cc2F)c(Cl)nc2nc(C)nn12 [compound 156]

- logP [3, 5]: 3.23
SMILES: CCN(CC)c1c(-c2c(F)cc(F)cc2F)c(Cl)nc2nc(C)nn12 [compound 63]

- logP [3, 5]: 2.79
SMILES: Cc1nc2nc(Cl)c(-c3ccc(F)cc3F)c(N3OCCC3C)n2n1 (centres unmarked) [compound 695]

- logP [3, 6]: 3.52
SMILES: Cc1nc2nc(Cl)c(-c3ccc(F)cc3F)c(NC3CCCC(C(F)(F)F)C3)n2n1 (centres unmarked) [compound 349]

- logP [3, 5]: 2.76
SMILES: OC1CCN(c2c(-c3ccc(F)cc3F)c(Cl)nc3nc(C(F)(F)F)nn23)C1 (centres unmarked) [compound 555]

- logP [3, 5]: 3.47
SMILES: Fc1cccc(F)c1-c1c(Cl)nc2nc(C3CC3)nn2c1N1CCCCO1 [compound 753]

- logP [3, 6]: 3.75
SMILES: CC(Nc1c(-c2ccc(F)cc2Cl)c(Cl)nc2nc(C3CC3)nn12)C(F)(F)F (racemic) [compound 505]

- logP [3, 5]: 2.84
SMILES: Cc1nc2nc(Cl)c(-c3c(F)cccc3F)c(N3CC(C)OC(C)C3)n2n1 (centres unmarked) [compound 169]
